Laboratory results: US4145430A, “Beta-lactam compounds, preparation and use” (Beecham Group Limited, priority 1977, dated 1979)

Assays:
[1] = Stability when free of solvent; type: physicochemical
Method: The compound of the formula (V) tends to polymerise when free of solvent at room temperature so that it must either be stored in solution (optionally with hydroquinone) or at a low temperature. Preferably the compound of the formula (V) is used shortly after its preparation.
For determination of spectroscopic and biological properties aliquots of the toluene solution were treated in a manner similar to that described above for measurement of the nmr spectrum. The title compound was characterised by the following spectroscopic properties. λmax (EtOH): 277.5 nm. .nu.max (CHCl3): 1797 (β-lactam C= O ), 1670 and 1640 (C=C)cm^-1. δ (CDCl3): 3.36 (d, J 17Hz, 1H, C(6)H), 3.63 (dd, J 17, 2Hz, 1H, C(6)H), 5.22 (dd, J 10.5, 1.0Hz, 1H, olefinic H), 5.49 (dd, J 16, 1.0Hz, 1H, olefinic H), 5.80 (s, 2H, C(5)H and C(2)H), 6.10 (dd, J 16, 10.5Hz, 1H, olefinic H).

[2] = biological target: T1, β-lactamase from E. coli JT4 (Escherichia coli, UniProt P62593); assay: β-lactamase inhibition I50; type: biochemical
T1 construct: host or cells: E. coli JT4 (the producing strain)
Method: (§1) The I50 values obtained for the product of this example against certain common gram positive and gram negative bacteria were as follows:
(§2) The compound from Example 1 was a potent inhibitor of β-lactamase enzymes as illustrated in the following Table. I50 values were determined using the process described in Belgium Pat. No. 827,926.

[3] = biological target: β-lactamase from Proteus mirabilis C889; assay: β-lactamase inhibition I50; type: biochemical
Method: as §1, §2

[4] = biological target: T2, β-lactamase from Enterobacter cloacae P99 (Enterobacter cloacae, UniProt P05364); assay: β-lactamase inhibition I50; type: biochemical
T2 construct: host or cells: Enterobacter cloacae P99 (the producing strain)
Method: as §1, §2

[5] = biological target: T3, β-lactamase from Ps. aeruginosa Dalgleish (Pseudomonas aeruginosa, UniProt P16897); assay: β-lactamase inhibition I50; type: biochemical
T3 construct: host or cells: Pseudomonas aeruginosa Dalgleish (the producing strain)
Method: as §2

[6] = biological target: β-lactamase from Pseudomonas aeruginosa A; assay: β-lactamase inhibition I50; type: biochemical
Method: as §2

[7] = biological target: lactamase from Ps. aeruginosa; assay: β-lactamase inhibition I50; type: biochemical; parameters: unit not given here
Text: The I50 values obtained for the product of this example against certain common gram positive and gram negative bacteria were as follows: […]

[8] = test system: Candida albicans BRL 1003; assay: Antifungal activity, paper tape on seeded blood agar base plate; type: cell-based; settings: BRL1003; loading of 250 μg on paper tape, Candida albicans BRL 1003, 28° C., 24 hours; read-out: zone of inhibition diameter
Method: The Z-isomer is able to inhibit the growth of Candida albicans. Thus, a loading of 250 μg of the Z-isomer on a paper tape which was contacted with a blood agar base plate seeded with Candida albicans BRL 1003 and incubated at 28° C. for 24 hours produced a zone of inhibition with diameter 22.1 mm.

T2 sequence (P05364 21-381): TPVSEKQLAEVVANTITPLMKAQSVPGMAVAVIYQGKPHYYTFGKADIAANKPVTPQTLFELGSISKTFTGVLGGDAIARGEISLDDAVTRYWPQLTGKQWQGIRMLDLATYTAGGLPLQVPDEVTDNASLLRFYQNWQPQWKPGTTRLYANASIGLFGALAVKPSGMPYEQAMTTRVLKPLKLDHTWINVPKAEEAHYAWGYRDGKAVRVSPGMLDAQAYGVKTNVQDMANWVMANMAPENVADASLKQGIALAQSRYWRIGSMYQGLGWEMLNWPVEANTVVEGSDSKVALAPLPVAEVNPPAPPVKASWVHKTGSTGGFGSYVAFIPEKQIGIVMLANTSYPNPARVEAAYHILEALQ
T1 sequence (P62593 24-286 limits assumed): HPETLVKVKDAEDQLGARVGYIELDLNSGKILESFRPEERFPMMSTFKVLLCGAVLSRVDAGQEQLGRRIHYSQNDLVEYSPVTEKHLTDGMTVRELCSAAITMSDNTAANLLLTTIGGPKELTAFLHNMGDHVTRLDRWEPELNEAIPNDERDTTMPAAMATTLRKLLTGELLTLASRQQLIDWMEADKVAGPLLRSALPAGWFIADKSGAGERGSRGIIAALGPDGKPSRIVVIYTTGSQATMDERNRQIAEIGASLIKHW
T3 sequence (P16897 18-288): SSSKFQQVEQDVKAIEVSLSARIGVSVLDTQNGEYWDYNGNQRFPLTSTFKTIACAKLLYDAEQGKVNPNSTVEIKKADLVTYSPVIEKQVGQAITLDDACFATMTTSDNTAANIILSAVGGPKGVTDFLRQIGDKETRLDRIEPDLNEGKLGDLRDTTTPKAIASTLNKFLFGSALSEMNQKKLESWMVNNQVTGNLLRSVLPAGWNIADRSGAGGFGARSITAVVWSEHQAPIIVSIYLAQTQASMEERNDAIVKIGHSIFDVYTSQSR

SMILES | stability when free of solvent [1] | IC50 [2] | I50 [3] | IC50 ([4]; β-lactamase from Enterobacter cloacae P99) | IC50 [5] | I50 [6] | IC50 ([4]; lactamase from Enterobacter cloacae P 99) | I50 [7] | zone of inhibition at 250 µg/disc [8]
C=CC1=CN2C(=O)C[C@H]2O1 [Example 1, (5R)-7-oxo-3-vinyl-4-oxa-1-azabicyclo[3.2.0]hept-2-ene] | readily polymerises | 0.408 µM | 0.058 µg/mL | 0.19 µM | 0.292 µM | 0.06 µg/mL | – | – | –
CC=C1CN2C(=O)C[C@H]2O1 [Example 4, (5R)-3-ethylidene-4-oxa-1-azabicyclo[3.2.0]heptan-7-one] | – | 1.58 µM | 1.6 µg/mL | – | – | – | 2.01 µM | 0.86 | –
C/C=C1/CN2C(=O)C[C@H]2O1 [Z-isomer, Z-(5R)-3-ethylidene-4-oxa-1-azabicyclo[3.2.0]heptan-7-one] | – | – | – | – | – | – | – | – | 22.1 mm
